In brackets after ≈: the same amount, converted by molar mass.
Assays:
MCF7 [1] = experiment: Cytotoxicity against human MCF7 cells by MTT assay; format: functional, cell-based
SK-N-MC [2] = experiment: Cytotoxicity against human SK-N-MC cells by MTT assay; format: functional, cell-based
MDA-MB-231 [3] = experiment: Cytotoxicity against human MDA-MB-231 cells by MTT assay; format: functional, cell-based
MDA-MB-231 [4] = experiment: Ratio of etoposide IC50 to compound IC50 for human MDA-MB-231 cells by MTT assay; format: functional
SK-N-MC [5] = experiment: Ratio of etoposide IC50 to compound IC50 for human SK-N-MC cells by MTT assay; format: functional
MCF7 [6] = experiment: Ratio of etoposide IC50 to compound IC50 for human MCF7 cells by MTT assay; format: functional

Row | Compound | IC50 (MCF7 [1]) | IC50 (SK-N-MC [2]) | IC50 (MDA-MB-231 [3]) | Ratio IC50 (MDA-MB-231 [4]) | Ratio IC50 (SK-N-MC [5]) | Ratio IC50 (MCF7 [6])
1 | O=C1/C(=C/c2ccc(Cl)cc2)CCC/C1=C\c1ccc([N+](=O)[O-])cc1 | 1.02 µg/mL (≈ 2.88 µM) | 14 µg/mL (≈ 39.7 µM) | 12.4 µg/mL (≈ 35.1 µM) |  |  | 
2 | COc1cc(/C=C2\CCC/C(=C\c3ccc([N+](=O)[O-])cc3)C2=O)ccc1O | 7.05 µg/mL (≈ 19.3 µM) | 48 µg/mL (≈ 131 µM) | 13.1 µg/mL (≈ 35.8 µM) |  |  | 
3 | COc1cccc(/C=C2\CCC/C(=C\c3ccccc3[N+](=O)[O-])C2=O)c1 | 5.62 µg/mL (≈ 16.1 µM) | 4.49 µg/mL (≈ 12.9 µM) | 14.3 µg/mL (≈ 41 µM) |  |  | 
4 | COc1cc(/C=C2\CCC/C(=C\c3ccccc3[N+](=O)[O-])C2=O)cc(Br)c1OC | 3.35 µg/mL (≈ 7.31 µM) | 6.24 µg/mL (≈ 13.6 µM) | 8.99 µg/mL (≈ 19.6 µM) |  |  | 
5 | CCCOc1c(Br)cc(/C=C2\CCC/C(=C\c3ccccc3[N+](=O)[O-])C2=O)cc1OC | 4.14 µg/mL (≈ 8.51 µM) | 3.5 µg/mL (≈ 7.2 µM) | 1.99 µg/mL (≈ 4.09 µM) | 10 |  | 
6 | COc1cccc(/C=C2\CCC/C(=C\c3cccc([N+](=O)[O-])c3)C2=O)c1 | 4.17 µg/mL (≈ 11.9 µM) | 4.94 µg/mL (≈ 14.1 µM) | 13.2 µg/mL (≈ 37.7 µM) |  |  | 
7 | COc1cccc(/C=C2\CCC/C(=C\c3cccc([N+](=O)[O-])c3)C2=O)c1OC | 5.14 µg/mL (≈ 13.5 µM) | 10.1 µg/mL (≈ 26.6 µM) | 5.59 µg/mL (≈ 14.7 µM) |  |  | 
8 | COc1cc(/C=C2\CCC/C(=C\c3cccc([N+](=O)[O-])c3)C2=O)cc(Br)c1OC | 4.72 µg/mL (≈ 10.3 µM) | 16.7 µg/mL (≈ 36.4 µM) | 13.9 µg/mL (≈ 30.4 µM) |  |  | 
9 | CCOc1c(Br)cc(/C=C2\CCC/C(=C\c3cccc([N+](=O)[O-])c3)C2=O)cc1OC | 24.9 µg/mL (≈ 52.7 µM) | 10.8 µg/mL (≈ 22.8 µM) | 19.3 µg/mL (≈ 40.9 µM) |  |  | 
10 | CCCOc1c(Br)cc(/C=C2\CCC/C(=C\c3cccc([N+](=O)[O-])c3)C2=O)cc1OC | 0.85 µg/mL (≈ 1.75 µM) | 1.51 µg/mL (≈ 3.1 µM) | 2.99 µg/mL (≈ 6.15 µM) | 7 | 7 | 7
11 | CCCCOc1c(Br)cc(/C=C2\CCC/C(=C\c3cccc([N+](=O)[O-])c3)C2=O)cc1OC | 5.97 µg/mL (≈ 11.9 µM) | 25.3 µg/mL (≈ 50.7 µM) | 5.53 µg/mL (≈ 11.1 µM) |  |  | 
12 | O=C1/C(=C/c2ccc([N+](=O)[O-])cc2)CCC/C1=C\c1cccc([N+](=O)[O-])c1 | 8.4 µg/mL (≈ 23.1 µM) | 17.9 µg/mL (≈ 49.1 µM) | 8.85 µg/mL (≈ 24.3 µM) |  |  | 
13 | O=C1/C(=C/c2cccc(Cl)c2)CCC/C1=C\c1cccc([N+](=O)[O-])c1 | 5.15 µg/mL (≈ 14.6 µM) | 4.15 µg/mL (≈ 11.7 µM) | 5.01 µg/mL (≈ 14.2 µM) |  |  | 
14 | COc1cccc(/C=C2\CCC/C(=C\c3ccc([N+](=O)[O-])cc3)C2=O)c1 | 5.82 µg/mL (≈ 16.7 µM) | 11.5 µg/mL (≈ 33 µM) | 51.4 µg/mL (≈ 147 µM) |  |  | 
15 | COc1cccc(/C=C2\CCC/C(=C\c3ccc([N+](=O)[O-])cc3)C2=O)c1OC | 13.3 µg/mL (≈ 35.1 µM) | 22.1 µg/mL (≈ 58.4 µM) | 6.73 µg/mL (≈ 17.7 µM) |  |  | 
16 | COc1cc(/C=C2\CCC/C(=C\c3ccc([N+](=O)[O-])cc3)C2=O)cc(Br)c1O | 4.93 µg/mL (≈ 11.1 µM) | 16.8 µg/mL (≈ 37.8 µM) | > 100 µg/mL |  |  | 
17 | COc1cc(/C=C2\CCC/C(=C\c3ccc([N+](=O)[O-])cc3)C2=O)cc(Br)c1OC | 11 µg/mL (≈ 24.1 µM) | 9.86 µg/mL (≈ 21.5 µM) | 8.71 µg/mL (≈ 19 µM) |  |  | 
18 | CCOc1c(Br)cc(/C=C2\CCC/C(=C\c3ccc([N+](=O)[O-])cc3)C2=O)cc1OC | 3.08 µg/mL (≈ 6.52 µM) | 3.91 µg/mL (≈ 8.28 µM) | 34.7 µg/mL (≈ 73.5 µM) |  |  | 
19 | CCCOc1c(Br)cc(/C=C2\CCC/C(=C\c3ccc([N+](=O)[O-])cc3)C2=O)cc1OC | 7.98 µg/mL (≈ 16.4 µM) | 23.3 µg/mL (≈ 47.8 µM) | 4.01 µg/mL (≈ 8.24 µM) |  |  | 
20 | CCCCOc1c(Br)cc(/C=C2\CCC/C(=C\c3ccc([N+](=O)[O-])cc3)C2=O)cc1OC | 27 µg/mL (≈ 54 µM) | 41.3 µg/mL (≈ 82.6 µM) | 8.38 µg/mL (≈ 16.7 µM) |  |  | 
21 | COc1ccc(/C=C2\CCC/C(=C\c3cccc([N+](=O)[O-])c3)C2=O)cc1 | 5.71 µg/mL (≈ 16.3 µM) | 10.4 µg/mL (≈ 29.7 µM) | 44.7 µg/mL (≈ 128 µM) |  |  | 
22 | COc1ccc(/C=C2\CCC/C(=C\c3ccccc3[N+](=O)[O-])C2=O)cc1 | 11.2 µg/mL (≈ 32.1 µM) | 75 µg/mL (≈ 215 µM) | 45 µg/mL (≈ 129 µM) |  |  | 
23 | COc1cc([C@@H]2c3cc4c(cc3[C@@H](O[C@@H]3O[C@@H]5CO[C@@H](C)O[C@H]5[C@H](O)[C@H]3O)[C@H]3COC(=O)[C@H]23)OCO4)cc(OC)c1O [ETOPOSIDE] | 18.4 µg/mL (≈ 31.3 µM) | 14 µg/mL (≈ 23.9 µM) | 20.5 µg/mL (≈ 34.9 µM) |  |  | 
